Source: patent US6486096B1, “Herbicidal compositions with acylated aminophenylsulfonylureas” (priority 1998, dated 2002)
Values joined by “and” are separate entries in the source; they are usually repeats but may differ in a detail not shown here. Identical values can stand only once. Like-named read-outs stand apart in the source and are kept apart here.

How the values were obtained:
Format in all cases: in vivo
SOLNI = experiment: Herbicidal action, visual scoring; conditions: Table 10, post-emergence, scoring 3 weeks after application, g of A.S./ha by row: r7 120, r8 60, r9 30, r10 15, r11 12, r12 6, r13 3, r14 30 + 6, r16 15 + 6, r18 30 + 3
Description: (§1) The herbicidal activity of the active substances or active substance mixtures was scored visually with the aid of the treated parcels in comparison with untreated control parcels. Damage to and development of all above-ground parts of plants was recorded here. Scoring was carried out on a percentage scale (100% action=all plants died; 50% action=50% of the plants and green plant parts died; 0% action=no discernible action=like control parcels. The mean of the scoring values of 4 parcels in each case was taken.
(§2) Seeds or rhizome pieces of monocotyledonous and dicotyledonous weeds are placed in sandy loam soil in pots, covered with soil and grown in the greenhouse under good growth conditions (temperature, humidity, water supply). Three weeks after sowing, the test plants in the three-leaf stage are treated with the compositions according to the invention. The compositions according to the invention which are formulated as wettable powders or as emulsion concentrates are sprayed in various dosages on the green parts of the plants at an application rate of 600 to 800 l of water/ha (converted). After the test plants have remained in the greenhouse for about 3 to 4 weeks under optimal growth conditions, the effect of the products is scored visually by comparison with untreated controls. When applied post-emergence, too, the compositions according to the invention have a good herbicidal activity against a broad spectrum of economically important grass weeds and broad-leaved weeds.
(§3) Crop plants were raised outdoors under natural outdoor conditions on plots in which seeds or rhizome sections of typical harmful plants had been sown or the natural weed infestation was used. The treatment with the compositions according to the invention was carried out after the emergence of the harmful plants and the crop plants, as a rule in the 2 to 4-leaf stage; in some cases (as indicated) the application of individual active substances or active substance combinations was carried out pre-emergence (cf. Example 1) or as a sequence treatment, in some cases pre-emergence and/or post-emergence.
(§4) After the application, e.g. 2, 4, 6 and 8 weeks after application, the action of the preparations was scored visually in comparison with untreated controls (cf. score in Example 1). […] The crop plants, however, were not damaged or were only insignificantly damaged as a result of the treatment with the herbicidal compositions.

Avena sterilis = experiment: Herbicidal action, visual scoring; conditions: Table 8; post-emergence; scoring 46 days after application; g of A.S./ha by row: r7 60, r8 270, r9 450, r10 60 + 270
Description: as §1, §2, §3, §4

[1] = tested on: XANOR (Xanthium orientalis); experiment: Herbicidal action, visual scoring; conditions: Table 10, post-emergence, scoring 3 weeks after application, g of A.S./ha by row: r7 120, r8 60, r9 30, r10 15, r20 2000, r21 1000, r22 500, r23 30 + 1000, r25 15 + 1000, r27 30 + 500
Description: as §1, §2, §3, §4

[2] = tested on: IPOPU = Ipomoea purpureum; experiment: Herbicidal action, visual scoring; conditions: Table 3, post-emergence, scoring 6 weeks after application, g of A.S./ha 15, 30, 45, 60, 300, 30 + 300
Description: as §1, §2, §3, §4

[3] = tested on: EPHHL = Euphorbia heterophylla; experiment: Herbicidal action, visual scoring; conditions: Table 13, post-emergence, scoring 3 weeks after application, g of A.S./ha by row: r7 30, r8 100, r9 150, r10 30 + 50
Description: as §1, §2, §3, §4

[4] = tested on: PHBPU = Pharbitis purpurea; experiment: Herbicidal action, visual scoring; conditions: Table 2; scoring 3 weeks after application; (pe) pre-emergence, (po) post-emergence; g of A.S./ha by row: r6 35 (po), r7 1120 + 1120 (pe), r9 (1120 + 1120) (pe) + 35 (po)
Description: as §1, §2, §3, §4

Chrysanthemum coronarium = experiment: Herbicidal action, visual scoring; conditions: Table 8; post-emergence; scoring 46 days after application; g of A.S./ha by row: r7 60, r8 270, r9 450, r10 60 + 270
Description: as §1, §2, §3, §4

[5] = tested on: ABUTH = Abutilon theophrasti; experiment: Herbicidal action, visual scoring; conditions: Table 2; scoring 3 weeks after application; (pe) pre-emergence, (po) post-emergence; g of A.S./ha by row: r6 35 (po), r7 1120 + 1120 (pe), r9 (1120 + 1120) (pe) + 35 (po)
Description: as §1, §2, §3, §4

Brachiaria plantophylla = experiment: Herbicidal action, visual scoring; conditions: Table 24; post-emergence; scoring 6 weeks after application; g of A.S./ha by row: r6 45, r7 22.5, r8 60, r9 30, r11 22.5 + 30, r13 60, r14 30, r16 22.5 + 30, r18 450, r20 22.5 + 450
Description: as §1, §2, §3, §4

rice = experiment: Damage on crop plants (selectivity), visual scoring; conditions: Table 24; post-emergence; scoring 6 weeks after application; g of A.S./ha by row: r6 45, r7 22.5, r8 60, r9 30, r11 22.5 + 30, r13 60, r14 30, r16 22.5 + 30, r18 450, r20 22.5 + 450
Description: as §1, §3
(§5) After the application, e.g. 2, 4, 6 and 8 weeks after application, the action of the preparations was scored visually in comparison with untreated controls (cf. score in Example 1). […]

[6] = tested on: Sethoxidime-resistant corn (SR); experiment: as above; conditions: Table 22, post-emergence, scoring 4 weeks after application, g of A.S./ha by row: r7 50, r8 25, r9 12.5, r10 400, r11 200, r12 100, r13 12.5 + 100, r14 12.5 + 200, r15 25 + 100
Description: as §1, §3, §5

[7] = tested on: POLCO = Polygonum convolvulus; experiment: Herbicidal action, visual scoring; conditions: Table 4; post-emergence; scoring 40 days after application; g of A.S./ha: 30, 45, 60, 300, 45 + 300
Description: as §1, with “taken. […]” for “taken.”
as §3, §4

SIDSP = Sida spinosa = experiment: Herbicidal action, visual scoring; conditions: post-emergence
Description: as §1, §2, §3, §4

[8] = tested on: CHEAL = Chenopodium album; experiment: Herbicidal action, visual scoring; conditions: Table 4; post-emergence; scoring 40 days after application; g of A.S./ha: 30, 45, 60, 300, 45 + 300
Description: as §1, §2, §3, §4

corn = conditions: post-emergence
Description: as §1, §3, §4

AGRRE = Agropyron repens = experiment: Herbicidal action, visual scoring; conditions: Table 6, post-emergence, scoring 3 weeks after application, g of A.S./ha by row: r6 30, r7 45, r8 60, r9 2.5, r10 5, r11 7.5, r12 30 + 2.5, r13 30 + 5
Description: as §1, §2, §3, §4

[9] = tested on: ECHCG = Echinochloa crus-galli; experiment: Herbicidal action, visual scoring; conditions: Table 12, post-emergence, scoring 3 weeks after application, g of A.S./ha by row: r6 120, r7 60, r8 30, r9 15, r10 1000, r11 500, r12 250, r13 30 + 500, r14 30 + 250, r15 15 + 250, r16 40, r17 20, r18 10, r19 30 + 20, r20 15 + 20, r21 30 + 10, r22 200, r23 100, r24 50, r25 30 + 100, r26 15 + 100, r27 30 + 50
Description: as §1, §2, §3, §4

[10] = Table 3, scoring 6 weeks after application, g of A.S./ha 15, 30, 45, 60, 300, 30 + 300
[11] = Table 5, scoring 3 weeks after application, g of A.S./ha by row: r6 15, r7 30, r8 45, r9 60, r10 900, r11 30 + 900

SMILES: COc1cc(OC)nc(NC(=O)NS(=O)(=O)c2cc(NC=O)ccc2C(=O)N(C)C)n1 [(A1.1), N-[N-(4,6-dimethoxypyrimidin-2-yl)aminocarbonyl]-2-(dimethylaminocarbonyl)-5-(formylamino)benzenesulfonamide]
- Herbicidal action SOLNI (SOLNI; 15 g active substance per ha): 65%
- Herbicidal action SOLNI (SOLNI; 30 g active substance per ha): 83%
- Herbicidal action SOLNI (SOLNI; 60 g active substance per ha): 90%
- Herbicidal action SOLNI (SOLNI; 120 g active substance per ha): 90%
- Herbicidal action against Avena sterilis (Avena sterilis): 83%
- Herbicidal action XANOR ([1]; 15 g active substance per ha): 45%
- Herbicidal action XANOR ([1]; 30 g active substance per ha): 55%
- Herbicidal action XANOR ([1]; 120 g active substance per ha): 60%
- Herbicidal action IPOPU ([2]; 15 g of A.S./ha): 43%
- Herbicidal action IPOPU ([2]; 30 g of A.S./ha): 67%
- Herbicidal action IPOPU ([2]; 45 g of A.S./ha): 70%
- Herbicidal action IPOPU ([2]; 60 g of A.S./ha): 83%
- Herbicidal action EPHHL [3]: 70%
- Herbicidal action PHBPU [4]: 45%
- Herbicidal action against Chrysanthemum coronarium (Chrysanthemum coronarium): 20%
- Herbicidal action ABUTH [5]: 88%

SMILES: CS(=O)(=O)c1ccc(C(=O)C2C(=O)CCCC2=O)c([N+](=O)[O-])c1 [(B1.4.4), 2-(4-Mesyl-2-nitrobenzoyl)cyclohexane-1,3-dione]
- Herbicidal action EPHHL ([3]; 100 g of active substance per ha): 63%
- Herbicidal action EPHHL ([3]; 150 g of active substance per ha): 73%

SMILES: COP(=S)(OC)SCC(=O)N(c1ccc(Cl)cc1)C(C)(C)C [(B1.6.11), anilofos]
- Herbicidal action Brachiaria plantophylla (Brachiaria plantophylla): 35%
- Damage on rice (rice): 8%

SMILES: CCC/C(=N\OCC)C1=C(O)CC(CC(C)SCC)CC1=O (stereo not shown) [(B1.6.33), sethoxydim]
- Damage on corn (SR) [6]: 3% and 2% and 0%

SMILES: N#Cc1cc(Br)c(O)c(Br)c1 [(B2.2.1), bromoxynil]
- Herbicidal action POLC0 [7]: 45%
- Herbicidal action IPOPU [2]: 53%
- Herbicidal action SIDSP (SIDSP = Sida spinosa; [10]): 70%
- Herbicidal action CHEAL [8]: 75%
- Damage on corn (corn; [10]): 0%
- Damage on corn (corn; Table 4, scoring 40 days after application, g of A.S./ha: 30, 45, 60, 300, 45 + 300): 0%

SMILES: CCCCCCCCSC(=O)Oc1cc(Cl)nnc1-c1ccccc1 [(B2.3.3), pyridate]
- Herbicidal action against SIDSP (SIDSP = Sida spinosa; [11]): 10%
- Damage on corn (corn; [11]): 0%

SMILES: COc1nc(C)nc(NC(=O)NS(=O)(=O)c2cc(I)ccc2C(=O)O)n1 [(B2.4.4), iodosulfuron]
- Herbicidal action against AGRRE (AGRRE = Agropyron repens; 2.5 g of A.S./ha): 0%
- Herbicidal action against AGRRE (AGRRE = Agropyron repens; 5 g of A.S./ha): 10%

SMILES: CC(C)N.O=C(O)CNCP(=O)(O)O [(B3.2.1), glyphosate-isopropylammonium]
- Herbicidal action ECHCG ([9]; 250 g active substance per ha): 73%
- Herbicidal action ECHCG ([9]; 500 g active substance per ha): 83%
- Herbicidal action ECHCG ([9]; 1000 g active substance per ha): 98%
